{"source": "patent US20170326232A1", "about": "“INTRATUMORAL ADMINISTRATION OF PARTICLES CONTAINING A TOLL-LIKE RECEPTOR 9 AGONIST AND A TUMOR ANTIGEN FOR TREATING CANCER” (Dynavax Technologies Corporation, priority 2016, published 2017)", "assay_type_in_all_cases": "physicochemical", "key": {"[1]": {"experiment": "Adsorption of CpG-ODN to aluminum hydroxide, quantified by UV absorbance at 260 nm", "details": "for D61-01 binding: co-adsorption with AH1 CII peptide; for % D61-04 Bound: Al(OH)3 1.0 mg"}, "[2]": {"experiment": "Solubilization of peptide antigens in buffers and organic solvents (visual assessment)", "set-up": "key to Qualitative Solubility score: 1 = fully soluble/clarity similar to water; 2 = partially soluble; 3 = insoluble"}, "[3]": {"experiment": "Adsorption of peptide antigens to aluminum hydroxide, quantified by UV, amino acid analysis or RP-HPLC", "details": "RP-HPLC at 215 nm"}, "[4]": {"details": "10 mM NaOAc, 150 mM NaCl, pH 7.0"}, "[5]": {"details": "input 0.25 mg to 1 mg aluminum hydroxide, pH 7.0"}, "[6]": {"details": "input 0.50 mg to 1 mg aluminum hydroxide, pH 7.0"}, "[7]": {"details": "input 1.0 mg to 1 mg aluminum hydroxide, pH 7.0"}, "[8]": {"details": "input 1.5 mg to 1 mg aluminum hydroxide, pH 7.0"}}, "note": "Values joined by “and” are separate entries in the source; they are usually repeats but may differ in a detail not shown here. Identical values can stand only once. Like-named read-outs stand apart in the source and are kept apart here. Square brackets hold non-standard residues; d marks the D form. Ends that are not written are not given here. PEG24 = NCCOCCOCCOCCOCCOCCOCCOCCOCCOCCOCCOCCOCCOCCOCCOCCOCCOCCOCCOCCOCCOCCOCCOCCOCCC(=O)O; Cha = N[C@@H](CC1CCCCC1)C(=O)O"}
{"substance": "5′-TCGGCGC-3′-HEG-5′-AACGTTC-3′-HEG-5′-TCGGCGC-3′ (DNA TCGGCGCAACGTTCTCGGCGC; HEG spacers, phosphorothioate linkages, chemistry not fully specified) [D61-01]", "values": [{"measurement": "maximum bound by 1 mg of aluminum hydroxide", "setting": "[1]; [4]", "value": 1.0, "unit": "mg"}, {"measurement": "D61-01 Binding efficiency", "setting": "[1]; 10 mM NaOAc, 150 mM NaCl, pH 7.0, Table S3-1", "value": "71-100%"}, {"measurement": "D61-01 binding", "setting": "[1]; 2.5 mg of aluminum", "value": 86, "unit": "%"}, {"measurement": "D61-01 binding", "setting": "[1]; four out of five conditions", "value": 100, "unit": "%"}, {"measurement": "D61-01 binding efficiencies", "setting": "[1]; co-adsorption with HPV16 peptide, two reactions", "value": "74% and 80%"}, {"measurement": "Binding efficiency", "setting": "[1]; [5]", "value": 100, "unit": "%"}, {"measurement": "Bound", "setting": "[1]; [5]", "value": 0.25, "unit": "mg"}, {"measurement": "Binding efficiency", "setting": "[1]; [6]", "value": 100, "unit": "%"}, {"measurement": "Bound", "setting": "[1]; [6]", "value": 0.50, "unit": "mg"}, {"measurement": "Binding efficiency", "setting": "[1]; [7]", "value": 99, "unit": "%"}, {"measurement": "Bound", "setting": "[1]; [7]", "value": 0.99, "unit": "mg"}, {"measurement": "Binding efficiency", "setting": "[1]; [8]", "value": 65, "unit": "%"}, {"measurement": "Bound", "setting": "[1]; [8]", "value": 0.97, "unit": "mg"}]}
{"substance": "[PEG24]VGALEGPRNQDWLAK[Cha]VAAWTLKAAATAYRYHLLSSVYDFFVWLSC [Triple, PEG24-VGALEGPRNQDWLAKXVAAWTLKAAATAYRYHLLSSVYDFFVWLSC wherein X = L-cyclohexylalanine]", "values": [{"measurement": "solubility", "setting": "[2]; 0.1 M sodium bicarbonate pH 8 buffer, water, PBS, sodium bicarbonate or NaOAc buffers", "value": "not appreciably soluble"}, {"measurement": "solubility", "setting": "[2]; 6M guanidine hydrochloride pH 8.5 or 20% IPA/water (v/v), read-out: solubility", "value": "1000 to 5000", "unit": "µg/mL"}]}
{"substance": "5′-TCGAACGTTCGAACGTTCGAACGTTCGAAT-3′ (DNA TCGAACGTTCGAACGTTCGAACGTTCGAAT; DNA, all phosphorothioate, methylation of C not given here) [D61-04]", "values": [{"measurement": "maximum bound by 1 mg of aluminum hydroxide", "setting": "[1]; [4]", "value": 1.1, "unit": "mg"}, {"measurement": "Binding efficiency", "setting": "[1]; [5]", "value": 100, "unit": "%"}, {"measurement": "Bound", "setting": "[1]; [5]", "value": 0.25, "unit": "mg"}, {"measurement": "Binding efficiency", "setting": "[1]; [6]", "value": 100, "unit": "%"}, {"measurement": "Bound", "setting": "[1]; [6]", "value": 0.50, "unit": "mg"}, {"measurement": "Binding efficiency", "setting": "[1]; [7]", "value": 89, "unit": "%"}, {"measurement": "Bound", "setting": "[1]; [7]", "value": 0.89, "unit": "mg"}, {"measurement": "Binding efficiency", "setting": "[1]; [8]", "value": 73, "unit": "%"}, {"measurement": "Bound", "setting": "[1]; [8]", "value": 1.1, "unit": "mg"}, {"measurement": "% D61-04 Bound", "setting": "[1]; pH 6.5, D61-04 input 1.0 mg", "value": 92, "unit": "%"}, {"measurement": "% D61-04 Bound", "setting": "[1]; pH 6.5, D61-04 input 1.5 mg", "value": 78, "unit": "%"}, {"measurement": "% D61-04 Bound", "setting": "[1]; pH 6.5, D61-04 input 2.0 mg", "value": 63, "unit": "%"}, {"measurement": "% D61-04 Bound", "setting": "[1]; pH 7.0, D61-04 input 1.0 mg", "value": 91, "unit": "%"}, {"measurement": "% D61-04 Bound", "setting": "[1]; pH 7.0, D61-04 input 1.5 mg", "value": 73, "unit": "%"}, {"measurement": "% D61-04 Bound", "setting": "[1]; pH 7.0, D61-04 input 2.0 mg", "value": 61, "unit": "%"}, {"measurement": "% D61-04 Bound", "setting": "[1]; pH 7.5, D61-04 input 1.0 mg", "value": 92, "unit": "%"}, {"measurement": "% D61-04 Bound", "setting": "[1]; pH 7.5, D61-04 input 1.5 mg", "value": 74, "unit": "%"}, {"measurement": "% D61-04 Bound", "setting": "[1]; pH 7.5, D61-04 input 2.0 mg", "value": 60, "unit": "%"}]}
{"substance": "CSGLEQLESIINFEKLTEWTSSNVMEERKIKV [OVApep]", "values": [{"measurement": "solubility", "setting": "[2]; 0.1 M sodium bicarbonate buffer, 0.1 M sodium bicarbonate, pH 8 buffer, read-out: solubility", "value": "2000 to 4000", "unit": "µg/mL"}, {"measurement": "solubility", "setting": "[2]; water, PBS or sodium acetate (NaOAc) buffers", "value": "not appreciably soluble"}]}
{"substance": "HRQLQLSISSCLQQLSLLMWITQCFLPVFLAQ [NY-ESO-1142-173 OLP]", "values": [{"measurement": "(%) binding efficiency to aluminum hydroxide", "setting": "[3]; 2-Butanol", "value": 100, "unit": "%"}, {"measurement": "(%) binding efficiency to aluminum hydroxide", "setting": "[3]; Acetic acid", "value": 100, "unit": "%"}, {"measurement": "(%) binding efficiency to aluminum hydroxide", "setting": "[3]; Acetone", "value": 100, "unit": "%"}, {"measurement": "(%) binding efficiency to aluminum hydroxide", "setting": "[3]; Ethanol", "value": 100, "unit": "%"}, {"measurement": "(%) binding efficiency to aluminum hydroxide", "setting": "[3]; Formic acid", "value": 100, "unit": "%"}, {"measurement": "(%) binding efficiency to aluminum hydroxide", "setting": "[3]; Isopropyl alcohol", "value": 100, "unit": "%"}, {"measurement": "Qualitative Solubility score", "setting": "[2]; Acetic acid", "value": 1}, {"measurement": "Visual Appearance", "setting": "[2]; Acetic acid", "value": "clear"}, {"measurement": "Qualitative Solubility score", "setting": "[2]; Acetone", "value": 1}, {"measurement": "Visual Appearance", "setting": "[2]; Acetone", "value": "clear"}, {"measurement": "Qualitative Solubility score", "setting": "[2]; Ethanol", "value": 1}, {"measurement": "Visual Appearance", "setting": "[2]; Ethanol", "value": "clear"}, {"measurement": "Qualitative Solubility score", "setting": "[2]; Formic acid", "value": 1}, {"measurement": "Visual Appearance", "setting": "[2]; Formic acid", "value": "clear"}, {"measurement": "Qualitative Solubility score", "setting": "[2]; Isoamyl alcohol", "value": 3}, {"measurement": "Visual Appearance", "setting": "[2]; Isoamyl alcohol", "value": "hazy"}, {"measurement": "Qualitative Solubility score", "setting": "[2]; Isopropyl acetate", "value": 3}, {"measurement": "Visual Appearance", "setting": "[2]; Isopropyl acetate", "value": "hazy/insoluble"}, {"measurement": "Qualitative Solubility score", "setting": "[2]; Methyl acetate", "value": 3}, {"measurement": "Visual Appearance", "setting": "[2]; Methyl acetate", "value": "hazy/insoluble"}, {"measurement": "Qualitative Solubility score", "setting": "[2]; n-Butyl acetate", "value": 3}, {"measurement": "Visual Appearance", "setting": "[2]; n-Butyl acetate", "value": "hazy/insoluble"}, {"measurement": "solubility after dilution of solvent", "setting": "[2]; six solvents diluted to 20% solvent/80% water (v/v), data not shown", "value": "remained visually soluble"}]}
